The assay relates to type 2 diabetic rats with sulfonylurea secondary failure (N-STZ-1.5 rat). The following applies: for Increment of plasma insulin level: 0 to 10 minutes after oral glucose loading (1 g/kg); for Increment of plasma insulin level / Increment of plasma glucose level: drug 10 mg/kg orally 30 min before glucose, male N-STZ-1.5 rats made glibenclamide-refractory, mean, n=6; for Increment of plasma glucose level: 0 to 60 minutes after oral glucose loading (1 g/kg); for plasma glucose level lowering effect / plasma insulin level increasing effect: in words, type 2 diabetic rats with sulfonylurea secondary failure, 10 mg/kg orally; for plasma glucose level lowering effect: summary of Table 1; for plasma insulin level increasing effect: summary of Table 2.

Experimental: Streptozocin (STZ) (120 mg/kg body weight) was administered to a 1.5-day-old male WKY rat to prepare a type 2 diabetes model N-STZ-1.5 rat.
Glibenclamide (10 mg/kg body weight/day) was orally administered to the N-STZ-1.5 rats (male, 18 rats) every day for 4 consecutive weeks.
At 30 min after the administration, 1 g/kg body weight of a glucose solution was orally administered to each rat, and blood samples were collected from the rat tail vein before administration of the glucose solution and at 10, 30, 60 and 120 minutes after administration of the glucose solution, and the plasma glucose level and plasma insulin level were measured.
The plasma glucose level was measured using an L type Wako Glu2 (trade name, Wako Pure Chemical Industries, Ltd.) according to an enzyme method, and the plasma insulin level was measured using a SHIONORIA insulin kit (trade name, Shionogi & Co., Ltd.) by a radioimmunoassay.
In the Tables, the values show mean values (n=6).

Consider `COc1ccc(Cl)cc1C(=O)NCCc1ccc(S(=O)(=O)NC(=O)NC2CCCCC2)cc1` [glibenclamide], for which the “Increment of plasma insulin level” value amounted to 29.37 μU/ml, the “Increment of plasma glucose level” value was 178.40 mg/dL, the “plasma glucose level lowering effect” value is given as “failed to show a plasma glucose level lowering effect” and the “plasma insulin level increasing effect” value is “hardly showed a plasma insulin level increasing effect”.
In the case of `Cc1cccc(C)c1-c1cccc(COc2ccc(CCC(=O)O)cc2)c1` [Compound A, 4-([2′,6′-dimethyl-1,1′-biphenyl]-3-ylmethoxy)benzenepropanoic acid], the “Increment of plasma insulin level” value is 42.76 μU/ml, the “Increment of plasma glucose level” value amounted to 107.12 mg/dL, the “plasma glucose level lowering effect” value was “superior plasma glucose level lowering effect” and the “plasma insulin level increasing effect” value is given as “superior plasma insulin level increasing effect”.
